According to US10406146B2, “Heterocyclic compound” (TAKEDA PHARMACEUTICAL COMPANY LIMITED, priority 2015, dated 2019):

Key:
Format in all cases: biochemical
HDAC9 enzyme = biological target: T1, HDAC9 enzyme (Homo sapiens, UniProt Q9UKV0); experiment: HDAC9 enzyme inhibitory assay (HDAC-Glo class IIa); details: wells without enzyme = 100% inhibition; for inhibition at 1 µM: read-out: HDAC9 inhibitory rate (%) (1 μM)
T1 construct: transducing full length HDAC9 gene into Sf-9 insect cells; made in house; host or cells: Sf-9 insect cells
Protocol: HDAC9 Enzyme Inhibitory Assay
Enzyme was prepared by transducing full length HDAC9 gene into Sf-9 insect cells and purifying by Ni-NTA affinity column, and HDAC9 enzyme inhibitory activity was evaluated. Enzymes were used after preserved at −70° C. HDAC9 enzyme inhibitory activity of the test compound was measured using HDAC-Glo class IIa (Promega) according to the following experimental method. The test compound diluted with assay buffer (24 mM Tris-HCl (pH 7.5), 1 mM MgCl2, 0.35 mM KCl, 135 mM NaCl, 0.6 mM Glutathione, 0.01% Tween-20) was added to a 384-well plate by each 2 μL. Then, HDAC9 enzyme solution diluted with assay buffer was added thereto by each 2 μL, and the plate was incubated at room temperature for 60 min. After incubated, HDAC substrate-Developer solution prepared according to Promega protocol was added to the 384-well plate by each 4 μL, and the enzyme reaction was started. After reacting at room temperature for 20 min, luminescence level was measured using plate reader Envision (PerkinElmer). The inhibitory activity of each compound was calculated as a relative activity value when luminescence level in wells without enzyme is considered as 100% inhibition.

HDAC6 enzyme = biological target: T2, HDAC6 enzyme (Homo sapiens, UniProt Q9UBN7); experiment: HDAC6 enzyme inhibitory assay (HDAC-Glo I/II Assay kit); details: wells without enzyme = 100% inhibition; for inhibition at 1 µM: read-out: HDAC6 inhibitory rate (%) (1 μM)
T2 construct: transducing full length HDAC1 and HDAC6 genes into Sf-9 insect cells; GST; purchased SignalChem; host or cells: Sf-9 insect cells
T2 sequence (Q9UBN7 1-1215): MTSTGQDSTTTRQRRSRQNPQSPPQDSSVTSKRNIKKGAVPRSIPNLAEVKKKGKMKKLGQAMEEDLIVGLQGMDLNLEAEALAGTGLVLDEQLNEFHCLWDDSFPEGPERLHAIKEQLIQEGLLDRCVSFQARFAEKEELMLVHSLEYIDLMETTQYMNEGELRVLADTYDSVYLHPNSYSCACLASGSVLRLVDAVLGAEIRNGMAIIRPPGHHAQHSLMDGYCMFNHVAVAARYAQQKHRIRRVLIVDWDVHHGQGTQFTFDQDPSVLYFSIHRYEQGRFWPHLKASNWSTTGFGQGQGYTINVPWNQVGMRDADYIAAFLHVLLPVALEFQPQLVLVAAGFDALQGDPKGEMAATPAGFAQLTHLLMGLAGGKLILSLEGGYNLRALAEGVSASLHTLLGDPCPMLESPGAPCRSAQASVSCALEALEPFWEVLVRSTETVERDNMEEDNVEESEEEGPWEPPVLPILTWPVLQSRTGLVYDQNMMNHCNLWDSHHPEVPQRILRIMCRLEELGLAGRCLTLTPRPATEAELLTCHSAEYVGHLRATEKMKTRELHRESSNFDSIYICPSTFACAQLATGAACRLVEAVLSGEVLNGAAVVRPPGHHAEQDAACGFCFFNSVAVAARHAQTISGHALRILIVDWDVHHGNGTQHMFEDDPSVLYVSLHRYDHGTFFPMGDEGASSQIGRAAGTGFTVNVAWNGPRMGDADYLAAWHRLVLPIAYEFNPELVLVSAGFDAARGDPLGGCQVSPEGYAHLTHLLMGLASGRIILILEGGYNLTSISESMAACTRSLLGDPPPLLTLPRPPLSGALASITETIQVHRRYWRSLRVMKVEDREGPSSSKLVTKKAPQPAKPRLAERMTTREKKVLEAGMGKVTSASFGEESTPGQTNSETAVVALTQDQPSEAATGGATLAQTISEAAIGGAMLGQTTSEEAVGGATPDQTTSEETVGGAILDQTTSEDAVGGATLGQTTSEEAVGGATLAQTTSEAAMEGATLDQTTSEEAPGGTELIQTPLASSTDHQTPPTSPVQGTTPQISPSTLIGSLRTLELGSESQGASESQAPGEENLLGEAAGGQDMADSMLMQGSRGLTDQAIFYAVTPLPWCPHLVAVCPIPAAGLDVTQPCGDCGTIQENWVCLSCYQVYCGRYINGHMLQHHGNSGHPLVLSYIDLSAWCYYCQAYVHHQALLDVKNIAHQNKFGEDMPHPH
Protocol: (§1) HDAC1/6 Enzyme Inhibitory Assay
(§2) HDAC1 enzyme and HDAC6 enzyme each prepared by transducing full length HDAC1 and HDAC6 genes into Sf-9 insect cells and purifying by GST affinity column were purchased from SignalChem. Using these enzymes, HDAC1 and/or HDAC6 enzyme inhibitory activities of the compound of the present invention were evaluated. Enzymes were used after preserved at −70° C. HDAC1 or HDAC6 enzyme inhibitory activity of the compound of the present invention was measured using HDAC-Glo™ I/II Assay kit (Promega) according to the following experimental method. The test compound diluted with assay buffer (24 mM Tris-HCl (pH 7.5), 1 mM MgCl2, 0.35 mM KCl, 135 mM NaCl, 0.6 mM Glutathione, 0.01% Tween-20) was added to a 384-well plate by each 2 μL. Then, HDAC1 or HDAC6 enzyme solution diluted with assay buffer was added thereto by each 4 μL, and the plate was incubated at room temperature for 60 min. After incubated, HDAC substrate-Developer solution prepared according to Promega protocol attached to the assay kit was added to the 384-well plate by each 2 μL, and the enzyme reaction was started. After reacting at room temperature for 20 min, luminescence level was measured using plate reader Envision (PerkinElmer). The inhibitory activity of each compound was calculated as a relative activity value when luminescence level in wells without enzyme is considered as 100% inhibition.

HDAC1 enzyme = biological target: T3, HDAC1 enzyme (Homo sapiens, UniProt Q13547); experiment: HDAC1 enzyme inhibitory assay (HDAC-Glo I/II Assay kit); details: wells without enzyme = 100% inhibition; for inhibition at 1 µM: read-out: HDAC1 inhibitory rate (%) (1 μM)
T3 construct: transducing full length HDAC1 and HDAC6 genes into Sf-9 insect cells; GST; purchased SignalChem; host or cells: Sf-9 insect cells
Protocol: as §1, §2

T3 sequence (Q13547 whole entry): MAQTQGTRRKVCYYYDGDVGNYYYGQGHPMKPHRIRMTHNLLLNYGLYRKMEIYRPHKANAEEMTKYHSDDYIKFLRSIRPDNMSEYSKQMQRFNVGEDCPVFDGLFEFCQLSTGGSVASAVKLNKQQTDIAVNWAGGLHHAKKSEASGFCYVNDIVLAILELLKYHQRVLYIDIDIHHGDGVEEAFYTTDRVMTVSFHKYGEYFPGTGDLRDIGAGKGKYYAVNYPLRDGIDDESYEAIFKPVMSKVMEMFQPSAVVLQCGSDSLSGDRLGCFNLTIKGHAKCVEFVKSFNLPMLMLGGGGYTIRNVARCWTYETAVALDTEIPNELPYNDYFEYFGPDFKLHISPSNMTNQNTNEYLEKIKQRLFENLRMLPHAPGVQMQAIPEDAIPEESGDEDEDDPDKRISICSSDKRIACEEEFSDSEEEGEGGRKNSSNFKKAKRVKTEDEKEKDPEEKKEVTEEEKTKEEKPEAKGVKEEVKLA
T1 sequence (Q9UKV0 whole entry, species assumed): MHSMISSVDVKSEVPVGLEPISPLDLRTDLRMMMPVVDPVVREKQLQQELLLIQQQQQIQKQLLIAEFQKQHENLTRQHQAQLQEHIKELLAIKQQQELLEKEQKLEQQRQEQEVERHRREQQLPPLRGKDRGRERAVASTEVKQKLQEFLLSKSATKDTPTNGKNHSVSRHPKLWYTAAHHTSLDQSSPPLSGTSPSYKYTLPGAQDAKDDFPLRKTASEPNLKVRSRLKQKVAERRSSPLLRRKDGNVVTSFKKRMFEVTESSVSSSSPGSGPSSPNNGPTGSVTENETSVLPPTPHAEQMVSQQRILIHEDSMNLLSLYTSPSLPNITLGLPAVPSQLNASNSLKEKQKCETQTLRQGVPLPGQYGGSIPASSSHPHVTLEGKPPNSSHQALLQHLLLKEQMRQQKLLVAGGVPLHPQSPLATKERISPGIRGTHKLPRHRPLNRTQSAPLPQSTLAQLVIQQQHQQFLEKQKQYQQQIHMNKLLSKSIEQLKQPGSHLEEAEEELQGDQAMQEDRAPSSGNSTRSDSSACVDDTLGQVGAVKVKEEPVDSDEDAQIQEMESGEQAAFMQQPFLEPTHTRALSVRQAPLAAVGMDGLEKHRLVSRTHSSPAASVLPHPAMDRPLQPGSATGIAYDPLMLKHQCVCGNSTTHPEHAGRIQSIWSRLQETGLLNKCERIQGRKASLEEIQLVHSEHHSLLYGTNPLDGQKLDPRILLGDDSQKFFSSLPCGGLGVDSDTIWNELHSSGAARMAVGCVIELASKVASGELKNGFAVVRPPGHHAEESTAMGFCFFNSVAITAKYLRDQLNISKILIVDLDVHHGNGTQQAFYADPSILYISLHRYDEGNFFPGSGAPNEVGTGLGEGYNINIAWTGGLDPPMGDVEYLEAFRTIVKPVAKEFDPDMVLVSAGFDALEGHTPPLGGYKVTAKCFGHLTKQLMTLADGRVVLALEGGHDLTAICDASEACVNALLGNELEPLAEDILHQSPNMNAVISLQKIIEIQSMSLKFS

Row | Structure (SMILES) | inhibition at 1 µM (HDAC9 enzyme) | inhibition at 1 µM (HDAC6 enzyme) | inhibition at 1 µM (HDAC1 enzyme) | HDAC9 inhibitory rate (%) (1 μM) (HDAC9 enzyme) | HDAC6 inhibitory rate (%) (1 μM) (HDAC6 enzyme) | HDAC1 inhibitory rate (%) (1 μM) (HDAC1 enzyme)
1 | O=C(NCC1COCCN1C(=O)Nc1ccc(-c2noc(C(F)(F)F)n2)cc1)c1ccccc1 (stereo not drawn) [Example 1, 3-((benzoylamino)methyl)-N-(4-(5-(trifluoromethyl)-1,2,4-oxadiazol-3-yl)phenyl)morpholine-4-carboxamide] | 98% | 6% | 62% |  |  | 
2 | O=C(NCC1CCCCN1C(=O)Nc1ccc(-c2noc(C(F)(F)F)n2)cc1)c1ccccc1 (stereo not drawn) [Example 2, 2-((benzoylamino)methyl)-N-(4-(5-(trifluoromethyl)-1,2,4-oxadiazol-3-yl)phenyl)piperidine-1-carboxamide] | 90% | 10% | 80% |  |  | 
3 | CC(C)(C)OC(=O)NCC1CCCCN1C(=O)Nc1ccc(-c2noc(C(F)(F)F)n2)cc1 (stereo not drawn) [Example 3, tert-butyl ((1-((4-(5-(trifluoromethyl)-1,2,4-oxadiazol-3-yl)phenyl)carbamoyl)piperidin-2-yl)methyl) carbamate] |  |  |  | 87% | 5% | 51%
4 | O=C(NCC1CCCCN1C(=O)Nc1ccc(-c2noc(C(F)(F)F)n2)cc1)c1ccccc1F (stereo not drawn) [Example 4, 2-(((2-fluorobenzoyl)amino)methyl)-N-(4-(5-(trifluoromethyl)-1,2,4-oxadiazol-3-yl)phenyl)piperidine-1-carboxamide] | 89% | 5% | 44% |  |  | 
5 | O=C(NCC1CCCCN1C(=O)Nc1ccc(-c2noc(C(F)(F)F)n2)cc1)c1cccc(F)c1 (stereo not drawn) [Example 5, 2-(((3-fluorobenzoyl)amino)methyl)-N-(4-(5-(trifluoromethyl)-1,2,4-oxadiazol-3-yl)phenyl)piperidine-1-carboxamide] | 95% | 4% | 35% |  |  | 
6 | O=C(NCC1CCCCN1C(=O)Nc1ccc(-c2noc(C(F)(F)F)n2)cc1)c1ccc(F)cc1 (stereo not drawn) [Example 6, 2-(((4-fluorobenzoyl)amino)methyl)-N-(4-(5-(trifluoromethyl)-1,2,4-oxadiazol-3-yl)phenyl)piperidine-1-carboxamide] | 94% | 5% | 34% |  |  | 
7 | O=C(NCC1CCCCN1C(=O)Nc1ccc(-c2noc(C(F)(F)F)n2)cc1)c1ccccc1Cl (stereo not drawn) [Example 7, 2-(((2-chlorobenzoyl)amino)methyl)-N-(4-(5-(trifluoromethyl)-1,2,4-oxadiazol-3-yl)phenyl)piperidine-1-carboxamide] | 52% | 3% | -3% |  |  | 
8 | O=C(NCC1CCCCN1C(=O)Nc1ccc(-c2noc(C(F)(F)F)n2)cc1)c1cccc(Cl)c1 (stereo not drawn) [Example 8, 2-(((3-chlorobenzoyl)amino)methyl)-N-(4-(5-(trifluoromethyl)-1,2,4-oxadiazol-3-yl)phenyl)piperidine-1-carboxamide] | 68% | 2% | -7% |  |  | 
9 | O=C(NCC1CCCCN1C(=O)Nc1ccc(-c2noc(C(F)(F)F)n2)cc1)c1ccc(Cl)cc1 (stereo not drawn) [Example 9, 2-(((4-chlorobenzoyl)amino)methyl)-N-(4-(5-(trifluoromethyl)-1,2,4-oxadiazol-3-yl)phenyl)piperidine-1-carboxamide] | 94% | 3% | 4% |  |  | 
10 | Cc1ccccc1C(=O)NCC1CCCCN1C(=O)Nc1ccc(-c2noc(C(F)(F)F)n2)cc1 (stereo not drawn) [Example 10, 2-(((2-methylbenzoyl)amino)methyl)-N-(4-(5-(trifluoromethyl)-1,2,4-oxadiazol-3-yl)phenyl)piperidine-1-carboxamide] | 84% | 5% | 4% |  |  | 
11 | Cc1cccc(C(=O)NCC2CCCCN2C(=O)Nc2ccc(-c3noc(C(F)(F)F)n3)cc2)c1 (stereo not drawn) [Example 11, 2-(((3-methylbenzoyl)amino)methyl)-N-(4-(5-(trifluoromethyl)-1,2,4-oxadiazol-3-yl)phenyl)piperidine-1-carboxamide] | 90% | 5% | 20% |  |  | 
12 | Cc1ccc(C(=O)NCC2CCCCN2C(=O)Nc2ccc(-c3noc(C(F)(F)F)n3)cc2)cc1 (stereo not drawn) [Example 12, 2-(((4-methylbenzoyl)amino)methyl)-N-(4-(5-(trifluoromethyl)-1,2,4-oxadiazol-3-yl)phenyl)piperidine-1-carboxamide] | 67% | 5% | -16% |  |  | 
13 | O=C(NCC1CCCCN1C(=O)Nc1ccc(-c2noc(C(F)(F)F)n2)cc1)c1ccccc1-c1ccccc1 (stereo not drawn) [Example 13, 2-(((biphenyl-2-ylcarbonyl)amino)methyl)-N-(4-(5-(trifluoromethyl)-1,2,4-oxadiazol-3-yl)phenyl)piperidine-1-carboxamide] | 82% | 9% | 19% |  |  | 
14 | O=C(NCC1CCCCN1C(=O)Nc1ccc(-c2noc(C(F)(F)F)n2)cc1)c1cccc(-c2ccccc2)c1 (stereo not drawn) [Example 14, 2-(((biphenyl-3-ylcarbonyl)amino)methyl)-N-(4-(5-(trifluoromethyl)-1,2,4-oxadiazol-3-yl)phenyl)piperidine-1-carboxamide] | 51% | 5% | -8% |  |  | 
15 | O=C(NCC1CCCCN1C(=O)Nc1ccc(-c2noc(C(F)(F)F)n2)cc1)c1ccc(-c2ccccc2)cc1 (stereo not drawn) [Example 15, 2-(((biphenyl-4-ylcarbonyl)amino)methyl)-N-(4-(5-(trifluoromethyl)-1,2,4-oxadiazol-3-yl)phenyl)piperidine-1-carboxamide] | 40% | -1% | -12% |  |  | 
16 | O=C(NCC1CCCCN1C(=O)Nc1ccc(-c2noc(C(F)(F)F)n2)cc1)c1ccccc1C(F)(F)F (stereo not drawn) [Example 16, 2-(((2-(trifluoromethyl)benzoyl)amino)methyl)-N-(4-(5-(trifluoromethyl)-1,2,4-oxadiazol-3-yl)phenyl)piperidine-1-carboxamide] | 57% | 1% | -2% |  |  | 
